The target in one experiment is T1, TLR7 (Homo sapiens, UniProt Q9NYK1).
T1 construct: expressed in transfected cells; host or cells: HEK/293 cells carrying TLR7 and an NF-kB luciferase reporter
T1 sequence (Q9NYK1 27-1049): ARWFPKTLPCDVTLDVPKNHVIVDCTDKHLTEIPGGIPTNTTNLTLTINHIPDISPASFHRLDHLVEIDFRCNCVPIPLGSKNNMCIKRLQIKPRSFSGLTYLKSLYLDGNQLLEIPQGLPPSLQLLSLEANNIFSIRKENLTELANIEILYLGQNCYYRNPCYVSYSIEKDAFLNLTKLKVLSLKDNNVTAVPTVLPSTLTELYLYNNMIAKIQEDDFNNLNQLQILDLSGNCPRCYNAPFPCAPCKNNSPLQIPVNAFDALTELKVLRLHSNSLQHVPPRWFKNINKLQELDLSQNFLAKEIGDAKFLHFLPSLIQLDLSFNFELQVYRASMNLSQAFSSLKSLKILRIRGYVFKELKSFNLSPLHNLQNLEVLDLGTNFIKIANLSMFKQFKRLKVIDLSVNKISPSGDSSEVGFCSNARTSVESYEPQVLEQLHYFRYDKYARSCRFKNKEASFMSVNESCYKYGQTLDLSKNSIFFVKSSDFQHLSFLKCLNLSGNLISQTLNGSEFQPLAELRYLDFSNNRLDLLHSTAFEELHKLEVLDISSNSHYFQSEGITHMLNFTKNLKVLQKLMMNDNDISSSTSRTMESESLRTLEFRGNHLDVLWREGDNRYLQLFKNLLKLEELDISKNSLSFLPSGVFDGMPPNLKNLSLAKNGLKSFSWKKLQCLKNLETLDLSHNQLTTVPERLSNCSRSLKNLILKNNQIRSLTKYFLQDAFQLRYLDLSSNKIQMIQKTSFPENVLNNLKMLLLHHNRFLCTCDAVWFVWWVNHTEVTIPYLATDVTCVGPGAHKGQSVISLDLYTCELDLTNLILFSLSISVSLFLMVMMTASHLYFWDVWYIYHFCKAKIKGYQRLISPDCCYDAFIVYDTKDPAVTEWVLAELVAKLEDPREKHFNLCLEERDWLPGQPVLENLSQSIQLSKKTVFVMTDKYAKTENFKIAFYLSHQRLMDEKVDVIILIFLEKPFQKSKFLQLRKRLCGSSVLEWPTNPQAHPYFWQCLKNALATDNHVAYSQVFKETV
Kind of experiment: HEK/293 TLR7 Cell Assay. The experiment is classed as cell-based. To be noted: TLR7/NFKb HEK cells, R848 agonist 10 uM final concentration, Steady-Glo readout; read-out: TLR7 potency. In outline: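 TLR7/NF-κB reporter HEK293 cells, 5000/well, cultured 24 h, then preincubated 30 min with compound before R848 agonist (10 uM final). After 5 h stimulation, Steady-Glo luciferase luminescence read.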

The target of the next experiment is T2, TLR8 (Homo sapiens, UniProt Q9NR97).
T2 construct: expressed in transfected cells; host or cells: HEK/293 reporter cells (NF-kB luciferase)
T2 sequence (Q9NR97 27-1041): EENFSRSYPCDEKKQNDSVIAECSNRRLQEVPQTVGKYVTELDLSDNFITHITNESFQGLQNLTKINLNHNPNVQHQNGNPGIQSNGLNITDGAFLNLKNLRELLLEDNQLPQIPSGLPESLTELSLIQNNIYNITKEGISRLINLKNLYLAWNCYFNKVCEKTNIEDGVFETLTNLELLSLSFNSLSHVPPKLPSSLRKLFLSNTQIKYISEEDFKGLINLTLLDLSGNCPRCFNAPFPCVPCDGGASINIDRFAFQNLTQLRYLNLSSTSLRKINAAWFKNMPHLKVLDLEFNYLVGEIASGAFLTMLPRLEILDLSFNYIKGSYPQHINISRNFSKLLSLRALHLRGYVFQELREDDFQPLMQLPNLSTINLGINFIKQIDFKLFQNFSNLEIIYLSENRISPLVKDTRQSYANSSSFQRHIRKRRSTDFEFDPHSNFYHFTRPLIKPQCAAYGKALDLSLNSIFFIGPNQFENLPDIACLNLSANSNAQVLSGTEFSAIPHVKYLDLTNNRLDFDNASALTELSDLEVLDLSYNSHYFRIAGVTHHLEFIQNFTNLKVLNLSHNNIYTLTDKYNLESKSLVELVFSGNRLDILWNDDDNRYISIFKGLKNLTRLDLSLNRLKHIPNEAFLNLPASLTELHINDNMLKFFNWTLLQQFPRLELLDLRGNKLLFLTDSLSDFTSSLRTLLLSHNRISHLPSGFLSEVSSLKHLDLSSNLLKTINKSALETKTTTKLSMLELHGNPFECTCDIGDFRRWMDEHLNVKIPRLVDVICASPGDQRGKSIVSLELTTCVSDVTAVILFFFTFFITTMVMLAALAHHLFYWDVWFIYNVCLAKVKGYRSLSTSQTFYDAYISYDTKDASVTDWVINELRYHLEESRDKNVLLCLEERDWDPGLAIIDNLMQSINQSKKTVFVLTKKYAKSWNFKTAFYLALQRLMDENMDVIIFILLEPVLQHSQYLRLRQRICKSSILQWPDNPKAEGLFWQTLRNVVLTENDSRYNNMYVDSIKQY
Kind of experiment: HEK/293 TLR8 Cell Assay. The class given is cell-based. The conditions noted are these: HEK cells, R848 agonist 30 uM final concentration, Steady-Glo readout; read-out: TLR8 potency.

The structures appear in SMILES notation.

Regarding `C[C@@H]1CN(c2ccc(C#N)c3nccnc23)C[C@H](CN2CCC(O)CC2)O1` [Example 219, 8-[(2S,6R)-2-(4-Hydroxy-piperidin-1-ylmethyl)-6-methyl-morpholin-4-yl]-quinoxaline-5-carbonitrile], the IC50 is 75 to 150 nM on TLR7 and over 150 nM on TLR8.

Regarding `C[C@H]1C[C@@H](NC(=O)[C@@H]2C[C@H](O)CN2)CN(c2ccc(C#N)c3nccnc23)C1` [Example 116, (2S,4S)—N-[(3R,5S)-1-(8-cyanoquinoxalin-5-yl)-5-methylpiperidin-3-yl]-4-hydroxypyrrolidine-2-carboxamide], the IC50 is over 150 nM at TLR7 and under 75 nM on TLR8.

`Cc1ccc(N2C[C@H](NC(=O)CC3CCN(C(C)C)CC3)CC(F)(F)C2)c2cccnc12` [Example 110, N—[(R)-5,5-Difluoro-1-(8-methyl-quinolin-5-yl)-piperidin-3-yl]-2-(1-isopropyl-piperidin-4-yl)-acetamide]: the IC50 on TLR7 was under 75 nM; at TLR8, over 150 nM.

Consider `C[C@@H]1CN(c2cnc(C(F)(F)F)c3ncccc23)C[C@H](CNC[C@@H]2CN(C)CCO2)O1` (single isomer, unassigned) [Example 386], for which the IC50 was over 150 nM on TLR7 and under 75 nM on TLR8.

Take `N#Cc1ccc(N2C[C@H](NCCNC(N)=O)C[C@H](C(F)(F)F)C2)c2cccnc12` [Example 40, {2-[(3R,5S)-1-(8-Cyano-quinolin-5-yl)-5-trifluoromethyl-piperidin-3-ylamino]-ethyl}-urea]: the IC50 is over 150 nM on TLR7 and 75 to 150 nM on TLR8.

Turning to `C[C@@H]1CN(c2ccc(C#N)c3nccnc23)C[C@H](CN2CC[C@@H](O)C2)O1` [Example 221, 8-[(2S,6R)-2-((R)-3-Hydroxy-pyrrolidin-1-ylmethyl)-6-methyl-morpholin-4-yl]-quinoxaline-5-carbonitrile], the IC50 on TLR7 is under 75 nM; at TLR8, over 150 nM.

As for `C[C@H]1C[C@@H](NCC(C)(F)C(=O)O)CN(c2ccc(C#N)c3nccnc23)C1` (stereo partly drawn) [Example 15, 3-[(3R,5S)-1-(8-Cyano-quinoxalin-5-yl)-5-methyl-piperidin-3-ylamino]-2-fluoro-2-methyl-propionic acid], the IC50 at TLR7 and at TLR8 was under 75 nM throughout.

`CCN(C)CCNC(=O)[C@H]1CN(c2ccc(C#N)c3ncncc23)C[C@@H](C)O1` [Example 266, (2R,6R)-4-(8-Cyano-quinazolin-5-yl)-6-methyl-morpholine-2-carboxylic acid [2-(ethyl-methyl-amino)-ethyl]-amide]: the IC50 at TLR7 is 75 to 150 nM; at TLR8, over 150 nM.

Take `N#Cc1ccc(N2C[C@H](NC(=O)C3CCCNC3)C[C@H](C(F)(F)F)C2)c2cccnc12` (stereo partly drawn) [Example 185, Piperidine-3-carboxylic acid [(3R,5S)-1-(8-cyano-quinolin-5-yl)-5-trifluoromethyl-piperidin-3-yl]-amide]: the IC50 at TLR7 is over 150 nM; on TLR8, 75 to 150 nM.

Consider `C[C@@H]1CN(c2ccc(C#N)c3nccnc23)C[C@H](C(=O)NCCCS(C)(=O)=O)O1` [Example 260, (2R,6R)-4-(8-cyanoquinoxalin-5-yl)-N-(3-methanesulfonylpropyl)-6-methylmorpholine-2-carboxamide], for which the IC50 was 75 to 150 nM on TLR7 and over 150 nM at TLR8.

Turning to `N#Cc1ccc(N2C[C@@H](C(F)(F)F)O[C@@H](C(=O)NC[C@@]3(F)CCNC3)C2)c2nccnc12` (single isomer, unassigned) [Example 307], the IC50 at TLR7 and on TLR8 was under 75 nM throughout.

For `CCN(C)CCNC(=O)[C@H]1CN(c2cnc(C#N)c3ncccc23)C[C@@H](C)O1` [Example 270, (2R,6R)-4-(8-Cyano-[1,7]naphthyridin-5-yl)-6-methyl-morpholine-2-carboxylic acid [2-(ethyl-methyl-amino)-ethyl]-amide], the IC50 at TLR7 and at TLR8 was under 75 nM each time.

Turning to `C[C@H]1C[C@@H](NC(=O)C[C@H]2[C@@H]3C[C@H]2CN(C)C3)CN(c2ccc(C(F)(F)F)c3ncccc23)C1` [Example 106, N-[(3R,5S)-5-methyl-1-[8-(trifluoromethyl)quinolin-5-yl]piperidin-3-yl]-2-[(1R,5S,6s)-3-methyl-3-azabicyclo[3.1.1]heptan-6-yl]acetamide], the IC50 at TLR7 and on TLR8 was under 75 nM in each case.

In the case of `CCN1CCN(C[C@H]2CN(c3cnc(C#N)c4ncccc34)C[C@@H](C)O2)CC1` [Example 371, 5-[(2S,6R)-2-(4-Ethyl-piperazin-1-ylmethyl)-6-methyl-morpholin-4-yl]-naphthyridine-8-carbonitrile], the IC50 at TLR7 is over 150 nM; at TLR8 it was under 75 nM.

On to `N#Cc1ccc(N2C[C@@H](C(F)(F)F)O[C@@H](C(=O)N[C@H]3CNC[C@H]3F)C2)c2nccnc12` (single isomer, unassigned) [Example 303], for which the IC50 at TLR7 and on TLR8 was under 75 nM in each case.

On to `N#Cc1ccc(N2C[C@@H](C(=O)NC[C@@]3(F)CCNC3)O[C@@H](C(F)(F)F)C2)c2nccnc12` (single isomer, unassigned) [Example 308], for which the IC50 on TLR7 and at TLR8 was under 75 nM throughout.

Consider `C[C@H]1C[C@@H](NC(=O)C[C@H]2CCNC[C@H]2F)CN(c2ccc(C#N)c3ncncc23)C1` [Example 132, N-[(3R,5S)-1-(8-cyanoquinazolin-5-yl)-5-methylpiperidin-3-yl]-2-[(3S,4R)-3-fluoropiperidin-4-yl]acetamide], for which the IC50 on TLR7 was under 75 nM; on TLR8, 75 to 150 nM.

Consider `C[C@H]1C[C@@H](n2ccnn2)CN(c2ccc(C#N)c3nccnc23)C1` (racemic) [Example 153, 8-[cis-3-methyl-5-(1H-1,2,3-triazol-1-yl)piperidin-1-yl]quinoxaline-5-carbonitrile], for which the IC50 was over 150 nM on TLR7 and under 75 nM at TLR8.

In the case of `C[C@H]1C[C@@H](NC(=O)NCCN(C)C)CN(c2ccc(C#N)c3nccnc23)C1` [Example 140, 1-[(3R,5S)-1-(8-cyanoquinoxalin-5-yl)-5-methylpiperidin-3-yl]-3-[2-(dimethylamino)ethyl]urea], the IC50 on TLR7 and on TLR8 was under 75 nM each time.

Regarding `C[C@H]1C[C@@H](NC(=O)C2(N)CCCNC2)CN(c2ccc(C(F)(F)F)c3ncccc23)C1` (stereo partly drawn) [Example 180, 3-Amino-piperidine-3-carboxylic acid [(3R,5S)-5-methyl-1-(8-trifluoromethyl-quinolin-5-yl)-piperidin-3-yl]-amide], the IC50 on TLR7 and on TLR8 was under 75 nM throughout.

The values above are taken from US20210300940A1 (Merck Patent GmbH, priority 2018, published 2021).
